Test results reported in patent publication US20110033418A1, “TREATMENT OF DISEASES CAUSED BY VIRAL INFECTION” (priority 2009, published 2011).

Key:
Ljungan virus (LV) [1] = experiment: Diabetes in male CD-1 mice infected with LV in utero and subjected to stress (glucose tolerance test, abdominal fat, serum insulin); type: in vivo
Description: Animals CD-1 (ICR) mice were obtained from Br Charles River laboratories, Germany. Glucose tolerance test was performed to diagnose diabetes. In this test 2 g glucose per kg body weight was injected intraperitoneally (as 100 mg glucose/ml solution). Blood glucose was measured (Medisence Precision PCx Abbott Laboratories) before the injection of glucose and after 60 and 120 min. Diabetes was defined as a blood glucose level above 200 mg/dL at 120 min. Abdominal fat in male mice was measured by dissecting out the bilateral scrotal fat cushion. The total weight of both fat cushions was used.
Analysis of insulin Serum insulin was measured using a rat insulin ELISA kit (Mercodia AB).
Transmission of LV to CD-1 mice followed by antiviral treatments Pregnant outbred CD1 mice were infected intraperitoneally with 1000 ID50 (determined by intra cerebral titration in suckling mice) units of LV145 SL two days after conception. Control animals were given an injection of saline. All female mice were kept in individual cages and followed for the development of gestational diabetes, pregnancy outcome and development of diabetes in the offspring. In all the pregnant mice mild stress was induced by adding glucose (100 g/L) to drinking water, performing weekly weights and a glucose tolerance test at the end of the pregnancy. At five weeks of age antiviral therapy to the male offsprings, using LV-specific murine antiserum or the oral antiviral compound Pleconaril (200 mg per kg body weight) or a combination of both, were given once a day for four consecutive days. The control groups of infected and uninfected male offsprings were untreated. From the age of 25 days all mice were subjected to stress by placing 4-5 male mice from different litters in the same cage. At 15 weeks of age the animals were subjected to a glucose tolerance test. Serum insulin levels and abdominal fat were measured.
Statistics The glucose tolerance test in the CD-1 mice was evaluated by Fisher's exact one sided test. Otherwise statistical significance in the CD-1 mice was evaluated by Student's t-test. P values <0.05 were considered significant. Data are presented as means±s.e.m.

LV = experiment: Inhibitory effect on LV in tissue culture; type: cell-based
Text: Antiviral agents Pleconaril (VP-63843) a novel, orally bio-available, broad spectrum anti-picorna-viral agent developed as a therapeutic tool in entero- and rhino viral infections, was used alone or in combination with specific antiserum for intervention.

Ljungan virus (LV) [2] = settings: number of 7 mice; 200 mg per kg orally daily for 50 days from day 35; terminated at day 120
Description: An ALS mouse model was used in which the mice are transgenic for superoxide dismutase 1 (SOD1). […] The inventors treated the LV infection in these mice using two different antiviral compounds separately and in combination. One group of mice was kept as a control.
Groups of seven 35 day old B6SJL-Tg-SOD1-G93 mice were treated with two antiviral compounds, Pleconaril and Ribavirin (200 mg of each per kg body weight), orally with a tube connected to a syringe daily for 50 consecutive days. Mice were observed every day for signs of paralysis.
The experiment was terminated at day 120 when all untreated animals were expected to have developed severe paralysis and death.

Compound: Cc1cc(CCCOc2c(C)cc(-c3noc(C(F)(F)F)n3)cc2C)on1 [Pleconaril, (3-[3,5-dimethyl-4-[[3-(3-methyl-5-isoxazolyl)propyl]oxy]phenyl]-5-(trifluoromethyl)-1,2,4-oxadiazole)]
- No. with blood glucose >200 mg/dL at 120 min (percent of group) (Ljungan virus (LV) [1]; glucose tolerance test at 15 weeks of age, LV infected, stressed male CD-1 mice): 9%
- Blood glucose at 60 min (Ljungan virus (LV) [1]; glucose tolerance test, 2 g glucose per kg i.p., means±s.e.m.): 211 ± 23.8 mg/dL
- No. with blood glucose >200 mg/dL at 120 min (Ljungan virus (LV) [1]; number of mice, glucose tolerance test at 15 weeks of age, LV infected, stressed male CD-1 mice, treatment once a day for four days at five weeks of age): 1
- Serum insulin (Ljungan virus (LV) [1]; rat insulin ELISA, means±s.e.m.): 4.15 ± 1.52 µg/L
- Abdominal fat (Ljungan virus (LV) [1]; total weight of bilateral scrotal fat cushions, means±s.e.m.): 2.1 ± 0.31 g
- inhibitory effect on LV (LV): some inhibitory effect on LV
- Mice with paralysis (including death) (Ljungan virus (LV) [2]): 5
- Mice without paralysis (Ljungan virus (LV) [2]): 2

Compound: NC(=O)c1ncn([C@@H]2O[C@H](CO)[C@@H](O)[C@H]2O)n1 [Ribavirin, 1-[(2R,3R,4S,5R)-3,4-dihydroxy-5-(hydroxymethyl)oxolan-2-yl]-1H-1,2,4-triazole-3-carboxamide]
- Mice with paralysis (including death) (Ljungan virus (LV) [2]): 6
- Mice without paralysis (Ljungan virus (LV) [2]): 1
